Measured values from patent publication US20050075375A1 (priority 2003, published 2005).

test system: monocistronic NK5.1 HCV replicon in Huh7 cells; assay: HCV replicon assay, monocistronic replicon cell line; assay type: cell-based, hepatitis C virus; details: Hepatitis C virus, Huh-7; monocistronic NK5.1 HCV replicon in Huh7 cells; median value; read-out: Mono EC50 Median
How it was run: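 EC50 derives from the HCV RNA/GAPDH RNA ratio by one-step TaqMan RT-PCR, relative to DMSO-only wells. Compounds (six half-log concentrations, 0.6% DMSO) were incubated 3 days at 37 °C with NK5.1 monocistronic replicon Huh7 cells plated a day earlier.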

SMILES | EC50 [µM]
COc1ccc(O)c(-c2nc(-c3cnccc3C(F)(F)F)n[nH]2)c1 [Compound 414, 4-Methoxy-2-[5-(4-trifluoromethyl-pyridin-3-yl)-2H-[1,2,4]triazol-3-yl]-phenol] | > 19
Oc1ccc(Cl)cc1-c1nc(-c2cnccc2C(F)(F)F)n[nH]1 [Compound 415, 4-Chloro-2-[5-(4-trifluoromethyl-pyridin-3-yl)-2H-[1,2,4]triazol-3-yl]-phenol] | 14
CCOc1cccc(-c2nc(-c3cnccc3C(F)(F)F)n[nH]2)c1O [Compound 416, 6-Ethoxy-2-[5-(4-trifluoromethyl-pyridin-3-yl)-2H-[1,2,4]triazol-3-yl]-phenol] | > 19
Oc1cc(OCc2ccccc2)ccc1-c1nc(-c2cnccc2C(F)(F)F)n[nH]1 [Compound 417, 5-Benzyloxy-2-[5-(4-trifluoromethyl-pyridin-3-yl)-2H-[1,2,4]triazol-3-yl]-phenol] | > 19
Fc1cc(-c2nc(-c3cnccc3C(F)(F)F)n[nH]2)ccc1-c1ccccc1 [Compound 418, 3-[5-(2-Fluoro-biphenyl-4-yl)-1H-[1,2,4]triazol-3-yl]-4-trifluoromethyl-pyridine] | 17
Oc1ccc(Br)cc1-c1nc(-c2cnccc2C(F)(F)F)n[nH]1 [Compound 419, 4-Bromo-2-[5-(4-trifluoromethyl-pyridin-3-yl)-2H-[1,2,4]triazol-3-yl]-phenol] | 12
Cc1ccc(O)c(-c2nc(-c3cnccc3C(F)(F)F)n[nH]2)c1 [Compound 420, 4-Methyl-2-[5-(4-trifluoromethyl-pyridin-3-yl)-2H-[1,2,4]triazol-3-yl]-phenol] | 9.7
COc1ccc(-c2nc(-c3cnccc3C(F)(F)F)n[nH]2)c(O)c1 [Compound 421, 5-Methoxy-2-[5-(4-trifluoromethyl-pyridin-3-yl)-2H-[1,2,4]triazol-3-yl]-phenol] | > 19
Oc1ccccc1-c1nc(-c2cnccc2C(F)(F)F)n[nH]1 [Compound 422, 2-[5-(4-trifluoromethyl-pyridin-3-yl)-2H-[1,2,4]triazol-3-yl]-phenol] | > 19
COc1cccc(-c2nc(-c3cnccc3C(F)(F)F)n[nH]2)c1O [Compound 423, 6-Methoxy-2-[5-(4-trifluoromethyl-pyridin-3-yl)-2H-[1,2,4]triazol-3-yl]-phenol] | > 19
CCN(CC)c1ccc(-c2nc(-c3cnccc3C(F)(F)F)n[nH]2)c(O)c1 [Compound 424, 5-Diethylamino-2-[5-(4-trifluoromethyl-pyridin-3-yl)-2H-[1,2,4]triazol-3-yl]-phenol] | > 3.2
CC1(C)CCN2CCC(C)(C)c3c(O)c(-c4nc(-c5cnccc5C(F)(F)F)n[nH]4)cc1c32 [Compound 425, 1,1,7,7-Tetramethyl-9-[5-(4-trifluoromethyl-pyridin-3-yl)-2H-[1,2,4]triazol-3-yl]-2,3,6,7-tetrahydro-1H,5H-pyrido[3,2,1-ij]quinolin-8-ol] | 2.9
Oc1ccc(O)c(-c2nc(-c3cnccc3C(F)(F)F)n[nH]2)c1 [Compound 426, 4-Hydroxy-2-[5-(4-trifluoromethyl-pyridin-3-yl)-2H-[1,2,4]triazol-3-yl]-phenol] | 12
COc1cccc(-c2nc(-c3cnccc3C(F)(F)F)n[nH]2)c1 [Compound 427, 3-[5-(3-Methoxy-phenyl)-1H-[1,2,4]triazol-3-yl]-4-trifluoromethyl-pyridine] | > 19
CC(C)c1ccc(-c2nc(-c3cnccc3C(F)(F)F)n[nH]2)cc1 [Compound 428, 3-[5-(4-Isopropyl-phenyl)-1H-[1,2,4]triazol-3-yl]-4-trifluoromethyl-pyridine] | > 19
Oc1ccc2ccccc2c1-c1nc(-c2cnccc2C(F)(F)F)n[nH]1 [Compound 429, 1-[5-(4-trifluoromethyl-pyridin-3-yl)-2H-[1,2,4]triazol-3-yl]-naphthalen-2-ol] | > 19
FC(F)(F)c1ccncc1-c1n[nH]c(-c2ccc(Br)cc2)n1 [Compound 430, 3-[5-(4-Bromo-phenyl)-1H-[1,2,4]triazol-3-yl]-4-trifluoromethyl-pyridine] | > 19
Brc1ccccc1-c1nc(-c2ccccn2)n[nH]1 [Compound 431, 2-[5-(2-Bromo-phenyl)-1H-[1,2,4]triazol-3-yl]-pyridine] | > 19
Brc1cccc(-c2nc(-c3ccccn3)n[nH]2)c1 [Compound 432, 2-[5-(3-Bromo-phenyl)-1H-[1,2,4]triazol-3-yl]-pyridine] | 19
Brc1ccc(-c2nc(-c3ccccn3)n[nH]2)cc1 [Compound 433, 2-[5-(4-Bromo-phenyl)-1H-[1,2,4]triazol-3-yl]-pyridine] | > 19
Fc1ccccc1-c1nc(-c2ccccn2)n[nH]1 [Compound 434, 2-[5-(2-Fluoro-phenyl)-1H-[1,2,4]triazol-3-yl]-pyridine] | > 19
Clc1cccc(Cl)c1-c1nc(-c2ccccn2)n[nH]1 [Compound 435, 2-[5-(2,6-Dichloro-phenyl)-1H-[1,2,4]triazol-3-yl]-pyridine] | > 19
Fc1cccc(Cl)c1-c1nc(-c2ccccn2)n[nH]1 [Compound 436, 2-[5-(2-Fluoro-6-chloro-phenyl)-1H-[1,2,4]triazol-3-yl]-pyridine] | 16

SMILES | EC50 [µM]
Brc1ccccc1-c1nc(-c2nccc3ccccc23)n[nH]1 [Compound 437] | 2.7
Brc1cccc(-c2nc(-c3nccc4ccccc34)n[nH]2)c1 [Compound 438] | > 19
Brc1ccc(-c2nc(-c3nccc4ccccc34)n[nH]2)cc1 [Compound 439] | > 19
Cc1cccnc1-c1n[nH]c(-c2cccc3ccccc23)n1 [Compound 440, 3-Methyl-2-(5-naphthalen-1-yl-1H-[1,2,4]triazol-3-yl)-pyridine] | 5.6
Cc1cccnc1-c1n[nH]c(-c2cc(C(C)(C)C)ccc2O)n1 [Compound 441, 4-tert-Butyl-2-[5-(3-methyl-pyridin-2-yl)-2H-[1,2,4]triazol-3-yl]-phenol] | > 10
Cc1cccnc1-c1n[nH]c(-c2cc([N+](=O)[O-])ccc2O)n1 [Compound 442, 4-Nitro-2-(5-(3-methyl-pyridin-2-yl)-2H-[1,2,4]triazol-3-yl)-phenol] | 7.9
Cc1cccnc1-c1n[nH]c(-c2cc(F)ccc2O)n1 [Compound 443, 4-Fluoro-2-(5-(3-methyl-pyridin-2-yl)-2H-[1,2,4]triazol-3-yl)-phenol] | > 10
COc1ccc(O)c(-c2nc(-c3ncccc3C)n[nH]2)c1 [Compound 444, 4-Methoxy-2-(5-(3-methyl-pyridin-2-yl)-2H-[1,2,4]triazol-3-yl)-phenol] | 7.7
Cc1cccnc1-c1n[nH]c(-c2cc(Cl)ccc2O)n1 [Compound 445, 4-Chloro-2-(5-(3-methyl-pyridin-2-yl)-2H-[1,2,4]triazol-3-yl)-phenol] | 2.9
CCOc1cccc(-c2nc(-c3ncccc3C)n[nH]2)c1O [Compound 446, 6-Ethoxy-2-(5-(3-methyl-pyridin-2-yl)-2H-[1,2,4]triazol-3-yl)-phenol] | 7.8
Cc1cccnc1-c1n[nH]c(-c2ccc(OCc3ccccc3)cc2O)n1 [Compound 447, 5-Benzyloxy-2-(5-(3-methyl-pyridin-2-yl)-2H-[1,2,4]triazol-3-yl)-phenol] | > 10
Cc1cccnc1-c1n[nH]c(-c2ccc(-c3ccccc3)c(F)c2)n1 [Compound 448, 2-[5-(2-Fluoro-biphenyl-4-yl)-1H-[1,2,4]triazol-3-yl]-3-methyl-pyridine] | 28
Cc1cccnc1-c1n[nH]c(-c2cc(Br)ccc2O)n1 [Compound 449, 4-Bromo-2-(5-(3-methyl-pyridin-2-yl)-2H-[1,2,4]triazol-3-yl)-phenol] | 2.3
Cc1ccc(O)c(-c2nc(-c3ncccc3C)n[nH]2)c1 [Compound 450, 4-Methyl-2-(5-(3-methyl-pyridin-2-yl)-2H-[1,2,4]triazol-3-yl)-phenol] | 4.2
COc1ccc(-c2nc(-c3ncccc3C)n[nH]2)c(O)c1 [Compound 451, 5-Methoxy-2-(5-(3-methyl-pyridin-2-yl)-2H-[1,2,4]triazol-3-yl)-phenol] | 23
Cc1cccnc1-c1n[nH]c(-c2ccccc2O)n1 [Compound 452, 2-(5-(3-methyl-pyridin-2-yl)-2H-[1,2,4]triazol-3-yl)-phenol] | 31
COc1cccc(-c2nc(-c3ncccc3C)n[nH]2)c1O [Compound 453, 6-Methoxy-2-(5-(3-methyl-pyridin-2-yl)-2H-[1,2,4]triazol-3-yl)-phenol] | 21
Cc1cccnc1-c1n[nH]c(-c2cccc([N+](=O)[O-])c2)n1 [Compound 454, 3-Methyl-2-[5-(3-nitro-phenyl)-1H-[1,2,4]triazol-3-yl]-pyridine] | 24
CCN(CC)c1ccc(-c2n[nH]c(-c3ncccc3C)n2)c(O)c1 [Compound 455, 5-Diethylamino-2-[5-(3-methyl-pyridin-2-yl)-2H-[1,2,4]triazol-3-yl]-phenol] | 8.1
Cc1cccnc1-c1n[nH]c(-c2cc3c4c(c2O)C(C)(C)CCN4CCC3(C)C)n1 [Compound 456, 1,1,7,7-Tetramethyl-9-[5-(3-methyl-pyridin-2-yl)-2H-[1,2,4]triazol-3-yl]-2,3,6,7-tetrahydro-1H,5H-pyrido[3,2,1-ij]quinolin-8-ol] | 0.73
Cc1cccnc1-c1n[nH]c(-c2cc(O)ccc2O)n1 [Compound 457, 4-Hydroxy-2-[5-(3-methyl-pyridin-2-yl)-2H-[1,2,4]triazol-3-yl]-phenol] | 4.1
COc1cccc(-c2nc(-c3ncccc3C)n[nH]2)c1 [Compound 458, 2-[5-(3-Methoxy-phenyl)-1H-[1,2,4]triazol-3-yl]-3-methyl-pyridine] | > 32
COc1ccc(F)c(-c2nc(-c3ncccc3C)n[nH]2)c1 [Compound 459, 2-[5-(2-Fluoro-5-methoxy-phenyl)-1H-[1,2,4]triazol-3-yl]-3-methyl-pyridine] | > 32
